Consider 8 cell lines from the supplement of paper PMC10307832.

Holding throughout (test): relative viability (nuclei count vs DMSO), 5 days (fraction); higher = more cells survive
Compound in test [1]: C1=CC2=C(C=C(C(=C2N=C1)O)N=NC3=CC4=C(C=C3)C=C(C=C4)S(=O)(=O)O)S(=O)(=O)O
In a few lines: (§1)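 Nuclei counted with MetaXpress define viability as the ratio of treated to vehicle wells, given as a median across plates. The lung cancer cell lines were in 1536-well plates, pinned with five √10-spaced library-drug doses and imaged at 4× after 5 days and Hoechst staining. Plates passed with control CV below 25% and at least one doubling.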

Compound in a further test: O=C(NC1CCNCC1)c1n[nH]cc1NC(=O)c1c(Cl)cccc1Cl [AT-7519]
A digest of the protocol: as §1

Compound in test [2]: C1=CC2=C(C=C(C(=C2N=C1)O)N=NC3=CC4=C(C=C3)C=C(C=C4)S(=O)(=O)O)S(=O)(=O)O + Cc1nc(NC(=O)N2CCC[C@H]2C(N)=O)sc1-c1ccnc(C(C)(C)C(F)(F)F)c1 [Alpelisib] (partner 2 µM)
In a few lines: (§2)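 Medians of duplicate plates are given as relative viability. That measure is the nuclei count in treated wells divided by the count in vehicle wells. Counts were taken on 4× images of lung cancer cell lines in 1536-well plates, 5 days after pin-tool dosing the day after seeding with one drug alone or a fixed anchor-drug dose plus five library-drug doses (not always all listed) in √10 steps.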

Compound in the test “AT-7519 + Pemetrexed”: O=C(NC1CCNCC1)c1n[nH]cc1NC(=O)c1c(Cl)cccc1Cl [AT-7519] + Nc1nc2[nH]cc(CCc3ccc(C(=O)N[C@@H](CCC(=O)O)C(=O)O)cc3)c2c(=O)[nH]1 [Pemetrexed] (partner 0.2 µM)
A digest of the protocol:
as §2

As to EKVX, the relative viability in test [1] (0.08 µM) was found to be 0.973; in test [1] (0.253 µM), 0.918; in test [1] (0.8 µM), 0.905; in test [1] (2.53 µM) it was 1.01; in test [1] (8 µM), 0.864; in the test with AT-7519 (0.01 µM) it was 0.948. Also, the relative viability with AT-7519 (0.03162 µM) was 0.911; in the test with AT-7519 (0.3162 µM), 0.939; with AT-7519 (1 µM) it was 1.03; in test [2] (first compound 0.08 µM) it was 1.01; in test [2] (first compound 0.253 µM) it was 0.849; in test [2] (first compound 0.8 µM), 0.793. The relative viability stood at 0.85 in test [2] (first compound 2.53 µM); 0.903 in test [2] (first compound 8 µM); 0.423 with AT-7519 + Pemetrexed (first compound 0.01 µM); 0.342 in the test with AT-7519 + Pemetrexed (first compound 0.03162 µM); 0.246 in the test with AT-7519 + Pemetrexed (first compound 0.3162 µM); 0.463 with AT-7519 + Pemetrexed (first compound 1 µM).

EMC-BAC-2: the relative viability stood at 0.916 in test [1] (0.08 µM); 1.02 in test [1] (0.253 µM); 1.03 in test [1] (0.8 µM); 1.01 in test [1] (2.53 µM); 0.93 in test [1] (8 µM); 0.954 with AT-7519 (0.01 µM). Further, the relative viability turned out to be 0.934 with AT-7519 (0.03162 µM); 0.996 with AT-7519 (0.3162 µM); 1.11 with AT-7519 (1 µM); 0.8 in test [2] (first compound 0.08 µM); 0.75 in test [2] (first compound 0.253 µM); 0.711 in test [2] (first compound 0.8 µM). Moreover, the relative viability in test [2] (first compound 2.53 µM) came to 0.766; in test [2] (first compound 8 µM), 0.696; with AT-7519 + Pemetrexed (first compound 0.01 µM), 0.464; in the test with AT-7519 + Pemetrexed (first compound 0.03162 µM), 0.442; with AT-7519 + Pemetrexed (first compound 0.3162 µM) it was 0.438; with AT-7519 + Pemetrexed (first compound 1 µM), 0.514.

As for EPLC-272H, the relative viability turned out to be 1.03 in test [1] (0.08 µM); 0.901 in test [1] (0.253 µM); 0.949 in test [1] (0.8 µM); 0.879 in test [1] (2.53 µM); 0.743 in test [1] (8 µM); 0.889 with AT-7519 (0.01 µM). For the same cell line, the relative viability in the test with AT-7519 (0.03162 µM) turned out to be 0.84; in the test with AT-7519 (0.3162 µM) it was 0.844; in the test with AT-7519 (1 µM), 0.761; in test [2] (first compound 0.08 µM), 0.996; in test [2] (first compound 0.253 µM), 0.831; in test [2] (first compound 0.8 µM), 0.876. The relative viability worked out at 0.963 in test [2] (first compound 2.53 µM); 0.944 in test [2] (first compound 8 µM); 0.268 in the test with AT-7519 + Pemetrexed (first compound 0.01 µM); 0.328 with AT-7519 + Pemetrexed (first compound 0.03162 µM); 0.303 in the test with AT-7519 + Pemetrexed (first compound 0.3162 µM); 0.0761 in the test with AT-7519 + Pemetrexed (first compound 1 µM).

In the case of H3255, the relative viability in test [1] (0.08 µM) was 1.01; in test [1] (0.253 µM), 0.965; in test [1] (0.8 µM) it was 1.01; in test [1] (2.53 µM), 1.03; in test [1] (8 µM), 1.04; in the test with AT-7519 (0.01 µM), 1.04. For the same cell line, the relative viability with AT-7519 (0.03162 µM) was found to be 0.96; in the test with AT-7519 (0.3162 µM) it was 0.969; with AT-7519 (1 µM), 0.838; in test [2] (first compound 0.08 µM), 0.82; in test [2] (first compound 0.253 µM), 0.698; in test [2] (first compound 0.8 µM) it was 0.717. Further, the relative viability in test [2] (first compound 2.53 µM) amounted to 0.775; in test [2] (first compound 8 µM), 0.712; with AT-7519 + Pemetrexed (first compound 0.01 µM), 0.559; in the test with AT-7519 + Pemetrexed (first compound 0.03162 µM) it was 0.589; with AT-7519 + Pemetrexed (first compound 0.3162 µM) it was 0.499; with AT-7519 + Pemetrexed (first compound 1 µM) it was 0.503.

For the cell line HARA, the relative viability in test [1] (0.08 µM) worked out at 1.03; in test [1] (0.253 µM), 0.871; in test [1] (0.8 µM) it was 0.995; in test [1] (2.53 µM), 0.953; in test [1] (8 µM), 0.806; in the test with AT-7519 (0.01 µM), 0.86. In addition, the relative viability in the test with AT-7519 (0.03162 µM) was determined as 0.897; with AT-7519 (0.3162 µM) it was 1.07; with AT-7519 (1 µM), 0.892; in test [2] (first compound 0.08 µM), 0.907; in test [2] (first compound 0.253 µM), 0.873; in test [2] (first compound 0.8 µM), 0.791. Also, the relative viability in test [2] (first compound 2.53 µM) was determined as 0.894; in test [2] (first compound 8 µM), 0.845; with AT-7519 + Pemetrexed (first compound 0.01 µM), 0.234; with AT-7519 + Pemetrexed (first compound 0.03162 µM) it was 0.298; with AT-7519 + Pemetrexed (first compound 0.3162 µM) it was 0.25; in the test with AT-7519 + Pemetrexed (first compound 1 µM), 0.296.

In the case of HCC-15, the relative viability in test [1] (0.08 µM) stood at 1.14; in test [1] (0.253 µM), 1; in test [1] (0.8 µM), 1.03; in test [1] (2.53 µM), 0.97; in test [1] (8 µM) it was 0.963; in the test with AT-7519 (0.01 µM), 1.03. For the same cell line, the relative viability is 0.911 with AT-7519 (0.03162 µM); 0.897 with AT-7519 (0.3162 µM); 0.754 in the test with AT-7519 (1 µM); 0.97 in test [2] (first compound 0.08 µM); 0.811 in test [2] (first compound 0.253 µM); 0.807 in test [2] (first compound 0.8 µM). The relative viability came out at 0.895 in test [2] (first compound 2.53 µM); 0.938 in test [2] (first compound 8 µM); 0.217 in the test with AT-7519 + Pemetrexed (first compound 0.01 µM); 0.225 with AT-7519 + Pemetrexed (first compound 0.03162 µM); 0.205 with AT-7519 + Pemetrexed (first compound 0.3162 µM); 0.204 with AT-7519 + Pemetrexed (first compound 1 µM).

Take HCC-44: the relative viability stood at 1.02 in test [1] (0.08 µM); 0.959 in test [1] (0.253 µM); 0.952 in test [1] (0.8 µM); 1.05 in test [1] (2.53 µM); 1 in test [1] (8 µM); 0.992 in the test with AT-7519 (0.01 µM). Also, the relative viability with AT-7519 (0.03162 µM) was 0.99; with AT-7519 (0.3162 µM), 1.05; with AT-7519 (1 µM), 1.05; in test [2] (first compound 0.08 µM), 0.867; in test [2] (first compound 0.253 µM), 0.786; in test [2] (first compound 0.8 µM), 0.779. In addition, the relative viability was found to be 0.893 in test [2] (first compound 2.53 µM); 0.893 in test [2] (first compound 8 µM); 0.622 with AT-7519 + Pemetrexed (first compound 0.01 µM); 0.696 in the test with AT-7519 + Pemetrexed (first compound 0.03162 µM); 0.65 with AT-7519 + Pemetrexed (first compound 0.3162 µM); 0.703 with AT-7519 + Pemetrexed (first compound 1 µM).

On to HCC-78, for which the relative viability in test [1] (0.08 µM) is 1.03; in test [1] (0.253 µM) it was 0.957; in test [1] (0.8 µM), 0.894; in test [1] (2.53 µM) it was 1.03; in test [1] (8 µM) it was 0.95; in the test with AT-7519 (0.01 µM), 0.999. The relative viability in the test with AT-7519 (0.03162 µM) came out at 0.93; with AT-7519 (0.3162 µM) it was 1.06; in the test with AT-7519 (1 µM) it was 1.05; in test [2] (first compound 0.08 µM), 0.406; in test [2] (first compound 0.253 µM) it was 0.325; in test [2] (first compound 0.8 µM) it was 0.319. Also, the relative viability in test [2] (first compound 2.53 µM) was 0.345; in test [2] (first compound 8 µM), 0.266; in the test with AT-7519 + Pemetrexed (first compound 0.01 µM), 0.916; with AT-7519 + Pemetrexed (first compound 0.03162 µM), 0.885; in the test with AT-7519 + Pemetrexed (first compound 0.3162 µM), 0.88; with AT-7519 + Pemetrexed (first compound 1 µM), 0.884.
